Laboratory results as given in US20250213588A1, “STERILIZATION METHOD OF PHARMACEUTICAL PREPARATION AND PACKAGING” (SANTEN PHARMACEUTICAL CO., LTD., priority 2022, published 2025).
“Also recorded” adds a separate entry of the source.

What was measured:
Format in all cases: physicochemical
[1] = Absorption wavelength measurement test (UV-visible spectrophotometer); settings: 0.0025% AFDX0250 solution in acetonitrile
Protocol: The absorption wavelength of AFDX0250 was measured.
AFDX0250 (10 mg) was dissolved in acetonitrile, and the solution was adjusted exactly to 100 mL to prepare 0.01% AFDX0250 solution. The solution was diluted 4-fold to prepare 0.0025% AFDX0250 solution. The prepared 0.0025% AFDX0250 solution was used as a test preparation.
The absorption spectrum of the prepared test preparation was measured using ultraviolet visible spectrophotometer.

[2] = Photostability test (1): irradiation at specific wavelengths; settings: Preparations 1 and 2; irradiated for 24 hours with multi-wavelength irradiation spectrometer; HPLC (FIG. 2)
Protocol: The stability of the aqueous pharmaceutical composition comprising AFDX0250 or a salt thereof under light irradiation was studied.
Preparation 1 with the composition shown in the above Table 1 and Preparation 2 with the composition shown in Table 4 were prepared in usual manners. The prepared preparations were used as test preparations.
The prepared test preparations were irradiated at specific wavelengths using multi-wavelength irradiation spectrometer for 24 hours, and the amount of AFDX0250 in each test preparation at each irradiation wavelength after the irradiation was quantified by high performance liquid chromatography to calculate the residual ratio of AFDX0250 (%). The residual ratio of AFDX0250 (%) represents the ratio of AFDX0250 (%) after irradiation when the amount of AFDX0250 in the test formulation is 100%.

[3] = Stability evaluation test after sterilization treatment; settings: for Hydrolysate (%): Example 6 test preparation; for Residual ratio (%): Example 6 test preparation (0.25 g AFDX0250 in 50 mL, citrate buffer, sodium chloride)
Protocol: An aqueous pharmaceutical composition comprising AFDX0250 or a salt thereof was sterilized to evaluate the stability of AFDX0250 in a preparation.
Sodium citrate hydrate (2.5 g) was dissolved in purified water and the solution was adjusted exactly to 100 mL to prepare 2.5% sodium citrate hydrate solution. Citric acid hydrate (0.2 g) was dissolved in purified water and the solution was adjusted exactly to 100 mL to prepare 0.2% citric acid hydrate solution. Sodium chloride (5 g) was dissolved in purified water and the solution was adjusted exactly to 50 mL to prepare 10% sodium chloride solution. 0.25 g of AFDX0250 was weighed, the weighed AFDX0250 was mixed with 10 mL each of 2.5% sodium citrate hydrate solution, 0.2% citric acid hydrate solution and 10% sodium chloride solution, and then the solution was adjusted exactly to 50 mL with purified water to prepare a test preparation.
The prepared test preparation was subjected to gamma radiation sterilization, sterilization by filtration using a filter or autoclaved (AC) sterilization to prepare a sterile formulation. The amount of AFDX0250 after each sterilization treatment was quantified by high performance liquid chromatography to calculate the residual ratio of AFDX0250 (%). The residual ratio of AFDX0250 (%) represents the ratio of AFDX0250 (%) after sterilization treatment when the amount of AFDX0250 in the test preparation is 100%. In addition, the amount of AFDX0250-derived hydrolysate (5,11-dihydro-6H-pyrido[2,3-b][1,4]benzodiazepin-6-one) in each test preparation excluding the test preparation subjected to gamma radiation sterilization was quantified by high performance liquid chromatography.

[4] = after AC (autoclaved) sterilization
[5] = after sterilization by filtration using a filter

CCN(CC)C[C@H]1CCCCN1CC(=O)N1c2ccccc2C(=O)Nc2cccnc21 [AFDX0250, (R)-11-[2-[2-[(diethylamino)methyl]-1-piperidinyl]acetyl]-5,11-dihydro-6H-pyrido[2,3-b][1,4]benzodiazepin-6-one]
absorption spectrum of AFDX0250 [1]: no absorption of AFDX0250 was observed at the longer wavelengths than about 330 nm
degradation of AFDX0250 under irradiation at specific wavelengths [2]: degraded at a wavelength of from 216 to 310 nm and 372 nm; also recorded: particularly degraded at a wavelength of 370 nm
Hydrolysate (%) [3, 4]: 0.37%
Residual ratio (%) [3, 4]: 93.8%
Residual ratio (%) ([3]; after gamma radiation sterilization): 55.7%
Hydrolysate (%) [3, 5]: 0.06%
Residual ratio (%) [3, 5]: 100.3%
